The results in this text go back to PubChem BioAssay AID179 (DTP/NCI, 2004).

The source made the active and inactive calls.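 The calls were made as follows: active = compounds giving half or more protection of infected cells from virus-caused growth loss, again on retest; inactive = the rest.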

The test system of this assay is CEM cells HIV-1 protection, formazan growth assay. As to the kind of experiment: NCI AIDS Antiviral Assay. As to conditions: for IC50: measured here: growth of uninfected CEM cells. The procedure, abridged:
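Screen of anti-HIV-1 activity in human CEM cells using a formazan-based growth measurement at five drug concentrations. Hits with 50% or greater protection were repeated, and confirmation required reproducible complete protection.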

Broadly, the EC50 is the concentration at which the effect is half-maximal. The IC50 is the concentration at which inhibition is half-maximal. A low value points to greater potency in that assay. `CC1OC(OC2C(O)COC(OC3C(C)OC(OC4C(OC(=O)[C@]56CCC(C)(C)C[C@@H]5C5=CCC7[C@@]8(C)C[C@H](O)[C@H](OC9OC(CO)C(O)C(OC%10OC(CO)C(O)C(O)C%10O)C9O)[C@@](C)(CO)[C@@H]8CC[C@@]7(C)[C@]5(C)CC6)OCC(O)C4O)C(O)C3OC3OCC(O)C(O)C3O)C2O)C(O)C(O)C1O` (some centres not stated): the EC50 was above 17 µM and the IC50 is above 17 µM.

Take `O=C1C2C3CCC(C3)C2S(=O)(=O)C2C3CCC(C3)C12` (configuration not stated): the EC50 is above 200 µM and the IC50 was above 200 µM.

`COc1cc(/C=C/C=C2\CC(C)C/C(=C\C=C\c3ccc(O)c(OC)c3)C2=O)ccc1O` (configuration not stated): the EC50 was above 200 µM and the IC50 stood at 1.41 µM.

As for `COC1=C(C(=O)OC(C)(C)C)C23CCCCC2(C(C(=O)OC(C)(C)C)=C(OC)C3C(=O)OC(C)(C)C)C1C(=O)OC(C)(C)C` (configuration not stated), the result was inactive.

For `O=CNc1ccc(S(=O)(=O)c2ccc(NC=O)cc2)cc1`, the result was inactive.

On to `NC1=C(c2ccccc2)C(=O)c2ccccc21`, for which the EC50 was above 61.7 µM and the concentration for half-maximal inhibition (IC50) was above 61.7 µM.

With `N#C/C(=C\c1ccc(Cl)cc1)c1ccccc1[N+](=O)[O-]`, the EC50 was above 200 µM and the IC50 was 120 µM.

On to `COC1(OC)CC(CO)(CNc2cc(Cl)nc(N)n2)C1`, for which the EC50 was above 200 µM and the IC50 was above 200 µM.

Turning to `CC1CN=C(Nc2ccc(F)cc2F)S1` (configuration not stated), the EC50 is above 200 µM and the IC50 is above 200 µM.

Turning to `N#C/C(=C\c1cccc(C#N)c1)c1ccccc1`, the EC50 was above 31.6 µM and the 50% inhibitory concentration (IC50) was above 31.6 µM.

Consider `COc1cccc(CN2CCCN(/N=C/c3c4c(O)c5c(O)c(C)c6c(c5c3O)C(=O)C(C)(O/C=C/C(OC)C(C)C(OC(C)=O)C(C)C(O)C(C)C(O)C(C)/C=C/C=C(/C)C(=O)N4)O6)CC2)c1` (configuration not stated), for which the EC50 was above 200 µM and the 50% inhibitory concentration (IC50) turned out to be 5.01 µM.

Regarding `NCCCCNc1ccc2c(=O)[nH][nH]c(=O)c2c1`, the result was inactive.

As for `COc1ccc(C2C3COc4ccccc4C3=NN2c2ccccc2)cc1` (configuration not stated), the EC50 was above 200 µM and the IC50 was above 200 µM.

On to `CC(C)/C(Cl)=N\OC(=O)Nc1cccc(Cl)c1`, for which the EC50 is above 200 µM and the IC50 came to 5.01 µM.

For `O=C(NC(N1CCN(c2cc3c(cc2F)c(=O)c(C(=O)O)cn3C2CC2)CC1)(C(F)(F)F)C(F)(F)F)c1ccccc1`, the EC50 is above 200 µM and the IC50 is 105 µM.

For the compound `S=c1[nH]nc(Cc2ccccc2)c(=S)[nH]1`, the outcome was inactive.

In the case of `OC1(c2ccccc2)CSC2=Nc3ccccc3C3CCN1N23` (configuration not stated), the EC50 was above 200 µM and the 50% inhibitory concentration (IC50) stood at 36.3 µM.

For `N#CC(C#N)=C1CCCS(=O)(=O)c2ccccc21`, the EC50 was above 200 µM and the concentration for half-maximal inhibition (IC50) is above 200 µM.

With `Cc1ccc(-c2c3nc(c(-c4ccc(C)cc4)c4ccc([nH]4)c(-c4ccc(OCC5COC(C)(C)O5)cc4)c4nc(c(-c5ccc(C)cc5)c5ccc2[nH]5)C=C4)C=C3)cc1` (configuration not stated), the EC50 is above 100 µM and the IC50 is above 100 µM.

With `Cc1ccc(CS(=O)(=O)C/N=c2\sc3ccccc3nc2/C=C(\O)c2ccc(Cl)cc2)cc1`, the EC50 is above 200 µM and the 50% inhibitory concentration (IC50) is above 200 µM.

In the case of `COc1ccccc1CC1(O)OC(=O)c2ccccc21` (configuration not stated), the EC50 is above 200 µM and the half-inhibitory concentration (IC50) was above 200 µM.

Turning to `O=C(O)c1cccc2c(=O)c3ccccc3oc12`, the EC50 was above 977 µM and the IC50 stood at 209 µM.

As for `CC1(C)Oc2ccc3c(=O)cc(-c4ccccc4)oc3c2C1C(=O)O` (configuration not stated), the EC50 is above 200 µM and the IC50 is above 200 µM.

As for `CN(C)/C=N/NC(=O)C(O)(c1ccccc1)c1ccccc1`, the EC50 is above 200 µM and the IC50 was above 200 µM.

Consider `Cc1c([N+](=O)[O-])c(=O)oc2ccc3c(=O)ccoc3c12`, for which the EC50 was above 50.1 µM and the half-inhibitory concentration (IC50) worked out at 8.71 µM.

Consider `COC(=O)C1=C(C)N2[C@H](C(=O)O)CS[C@@]2(C)[C@H](C(=O)OC)[C@H]1c1cccc([N+](=O)[O-])c1`, for which the EC50 is above 200 µM and the IC50 is 148 µM.

On to `O=C1O/C(=C(/Cl)c2cccc3ccccc23)c2ccccc21`, for which the outcome was inactive.

As for `Cc1[nH]nc2c1NC(=O)OC(C)C2` (configuration not stated), the EC50 is 132 µM and the IC50 is 490 µM.

With `Cc1ccc(S(=O)(=O)/C(C#N)=C/NC(=S)Nc2ccc(S(N)(=O)=O)cc2)cc1`, the outcome was inactive.

As to `CC(=O)[O-].COc1cccc(/C=N/[N-]C(=O)c2ccncc2)c1.[OH3+].[OH3+].[OH3+].[Zn+2]`, the EC50 was above 200 µM and the IC50 was 3.89 µM.

Turning to `CC[C@@H]1CN2CCc3c([nH]c4ccccc34)[C@@H]2C[C@@H]1/C(=C\OC)C(=O)OC`, the EC50 is above 64.6 µM and the half-inhibitory concentration (IC50) is above 64.6 µM.

As for `CN=C1CN2OC(=O)N(C)C2(c2ccccc2)c2cc(Cl)ccc2N1` (configuration not stated), the EC50 is above 112 µM and the IC50 came out at 41.7 µM.

Take `CC(SCCCCCCSC(C)C(=O)O)C(=O)O` (configuration not stated): the EC50 was above 851 µM and the half-inhibitory concentration (IC50) was above 851 µM.

Take `CC1=Nc2ccccc2S/C1=C1/C=NC(=NC#N)N=C1C(=O)Nc1cccc(Cl)c1`: the EC50 was above 83.2 µM and the half-inhibitory concentration (IC50) is above 83.2 µM.

Turning to `O=C1CCCC(=O)N1CCc1c[nH]c2ccccc12`, the outcome was inactive.

Turning to `c1ccc2c(c1)c1c(n2CCOCCN2CCCC2)CCCC1`, the EC50 is above 200 µM and the IC50 worked out at 9.55 µM.

Consider `C[N+]12CCCc3cc(CO)cc(c31)CCC2`, for which the EC50 was 112 µM and the half-maximal inhibitory concentration (IC50) came to 603 µM.

Regarding `CCOC(=O)c1[nH]c(COC(C)=O)c(CCCOC(C)=O)c1CCCOC(C)=O`, the outcome was inactive.

For `O=C1CC2(C(=O)N1CN1CCOCC1)c1ccccc1-c1ccccc12`, the EC50 was above 102 µM and the 50% inhibitory concentration (IC50) worked out at 13.8 µM.

`N#Cc1ncn(CCO)c1N`: the EC50 is above 200 µM and the IC50 is above 200 µM.

Consider `COC1OC2COC(c3ccccc3)OC2C(S)C1S` (configuration not stated), for which the EC50 was above 200 µM and the IC50 was 102 µM.

Consider `CC1(C)O[C@H]2OC(CO[Si](C)(C)C(C)(C)C)C(N=[N+]=[N-])[C@H]2O1` (some centres not stated), for which the EC50 was above 20 µM and the IC50 was above 20 µM.

With `CC(=O)/C(=C/c1ccccc1[N+](=O)[O-])C(=O)c1ccccc1`, the EC50 is above 24.5 µM and the half-maximal inhibitory concentration (IC50) stood at 2.09 µM.

Regarding `O=[N+]1ON=C(c2ccccc2)C1=C1C(c2c(-c3ccccc3)no[n+]2[O-])=NON1[O-]`, the EC50 was above 200 µM and the IC50 was 6.03 µM.

With `CN(C)CCn1c2c3ccccc3ccc2c2oc(=O)c3ccccc3c21`, the EC50 is above 18.2 µM and the 50% inhibitory concentration (IC50) was found to be 8.51 µM.

Turning to `CC1(Br)C(=O)NC(=O)N(C2C=CC(CO)O2)C1N=[N+]=[N-]` (configuration not stated), the EC50 is 0.724 µM and the 50% inhibitory concentration (IC50) was determined as 7.24 µM.

With `COc1cc2c(cc1O)-c1[nH]ncc1CCC2`, the EC50 was above 43.7 µM and the half-inhibitory concentration (IC50) is above 43.7 µM.

For `Cn1cc2ccccc2c1-c1nc(F)nc(Oc2ccc3c(c2)CC[C@@H]2C3CC[C@@]3(C)C2CC[C@@H]3O)n1` (some centres not stated), the EC50 was above 5.5 µM and the 50% inhibitory concentration (IC50) is above 5.5 µM.

Turning to `COc1cc(O)c2c(c1)C(=O)c1cc3c(c(O)c1C2=O)C(OC1OC(C)C(O)C(O)C1OC)C(OC)C(C)(O)C3=O` (configuration not stated), the EC50 was above 200 µM and the half-inhibitory concentration (IC50) came out at 3.16 µM.

Turning to `Cn1c(-c2ccccc2)cc(-c2ccc3c(c2)OCO3)c1-c1cccs1`, the EC50 is above 200 µM and the IC50 is above 200 µM.
